Source: patent publication US10336732B2, “1-heterocyclyl isochromanyl compounds and analogs for treating CNS disorders” (Sunovion Pharmaceuticals Inc., priority 2015, dated 2019)

Each compound was assayed on mice (assay: Neuropharmacological assay (SmartCube), behavioral signature of compound-treated mice). Settings: i.p. 15 min before behavioral test, most efficacious dose(s) of 3 doses.
Format: in vivo
Method in brief: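 Read-out is an automated video-based behavioral signature, scored as per-class probabilities (e.g., anxiolytic, antidepressant) against reference compounds. Dosing was i.p. at three doses, 15 min pre-test, in NMP, polyethylene glycol and propylene glycol. Values shown are from the most efficacious dose(s).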
In the case of `Fc1ccc2c(c1)CCO[C@H]2[C@H]1CCN1` [Compound I-92, (R)-2-((R)-6-fluoroisochroman-1-yl)azetidine], the “AD: ADHD (probability that behavioral signature matches class)” value (“AD: ADHD” for short) is reported as “+ (LOQ ≤ + <5%)”, the “AG: analgesic (probability that behavioral signature matches class)” value (from here on “AG: analgesic”) is reported as “++ (5% ≤ ++ <25%)” and the “AX: anxiolytic (probability that behavioral signature matches class)” value (shortened to “AX: anxiolytic”) is reported as “++ (5% ≤ ++ <25%)”. The “CE: cognitive enhancer (probability that behavioral signature matches class)” value (“CE: cognitive enhancer” for short) was “+++ (25% ≤ +++ <50%)”, the “DP: anti-depressant (probability that behavioral signature matches class)” value (“DP: anti-depressant” below) was “++ (5% ≤ ++ <25%)” and the “HA: hallucinogen (probability that behavioral signature matches class)” value (“HA: hallucinogen” below) was “+ (LOQ ≤ + <5%)”. For the same compound, the “MS: mood stabilizer (probability that behavioral signature matches class)” value (“MS: mood stabilizer” for short) was “++ (5% ≤ ++ <25%)”, the “PS: anti-psychotic (probability that behavioral signature matches class)” value (“PS: anti-psychotic” for short) was “+++ (25% ≤ +++ <50%)” and the “SD: sedative hypnotic (probability that behavioral signature matches class)” value (“SD: sedative hypnotic” below) was “+ (LOQ ≤ + <5%)”. For the same compound, the “UN: uncharacterized CNS activity (probability that behavioral signature matches class)” value (from here on “UN: uncharacterized CNS activity”) was “+ (LOQ ≤ + <5%)” and the “XG: anxiogenic (probability that behavioral signature matches class)” value (from here on “XG: anxiogenic”) was “+ (LOQ ≤ + <5%)”.
In the case of `c1ccc2c(c1)CCO[C@H]2[C@H]1CCN1` [Compound I-82, (R)-2-((R)-isochroman-1-yl)azetidine], the “AD: ADHD” value is reported as “+ (LOQ ≤ + <5%)”, the “AG: analgesic” value is reported as “++ (5% ≤ ++ <25%)” and the “AX: anxiolytic” value is reported as “++ (5% ≤ ++ <25%)”. For the same compound, the “CE: cognitive enhancer” value was “++ (5% ≤ ++ <25%)”, the “DP: anti-depressant” value was “+++ (25% ≤ +++ <50%)” and the “HA: hallucinogen” value was “+ (LOQ ≤ + <5%)”. The “MS: mood stabilizer” value was “++ (5% ≤ ++ <25%)”, the “PS: anti-psychotic” value was “++ (5% ≤ ++ <25%)” and the “SD: sedative hypnotic” value was “++ (5% ≤ ++ <25%)”. For the same compound, the “UN: uncharacterized CNS activity” value was “++ (5% ≤ ++ <25%)” and the “XG: anxiogenic” value was “+ (LOQ ≤ + <5%)”.
With `C[C@]1([C@@H]2CCCN2)OCc2cc(F)ccc21` [Compound I-123, (S)-2-((S)-5-fluoro-1-methyl-1,3-dihydroisobenzofuran-1-yl)pyrrolidine] the “AD: ADHD” value was “+ (LOQ ≤ + <5%)”, the “AG: analgesic” value was “+ (LOQ ≤ + <5%)” and the “AX: anxiolytic” value was “+ (LOQ ≤ + <5%)”. For the same compound, the “CE: cognitive enhancer” value was “+ (LOQ ≤ + <5%)”, the “DP: anti-depressant” value was “+ (LOQ ≤ + <5%)” and the “HA: hallucinogen” value was “+ (LOQ ≤ + <5%)”. For the same compound, the “MS: mood stabilizer” value was “+ (LOQ ≤ + <5%)”, the “PS: anti-psychotic” value was “+ (LOQ ≤ + <5%)” and the “SD: sedative hypnotic” value was “+ (LOQ ≤ + <5%)”. The “UN: uncharacterized CNS activity” value was “+ (LOQ ≤ + <5%)” and the “XG: anxiogenic” value was “+ (LOQ ≤ + <5%)”.
For `CN1CCC[C@H]1[C@@H]1OCCc2cc(F)ccc21` [Compound I-69, (S)-2-((R)-6-fluoroisochroman-1-yl)-1-methylpyrrolidine], the “AD: ADHD” value was “+ (LOQ ≤ + <5%)”, the “AG: analgesic” value was “+++ (25% ≤ +++ <50%)” and the “AX: anxiolytic” value was “++ (5% ≤ ++ <25%)”. The “CE: cognitive enhancer” value was “++ (5% ≤ ++ <25%)”, the “DP: anti-depressant” value was “++ (5% ≤ ++ <25%)” and the “HA: hallucinogen” value was “+ (LOQ ≤ + <5%)”. For the same compound, the “MS: mood stabilizer” value was “+ (LOQ ≤ + <5%)”, the “PS: anti-psychotic” value was “++ (5% ≤ ++ <25%)” and the “SD: sedative hypnotic” value was “+ (LOQ ≤ + <5%)”. For the same compound, the “UN: uncharacterized CNS activity” value was “+ (LOQ ≤ + <5%)” and the “XG: anxiogenic” value was “+ (LOQ ≤ + <5%)”.
For `Fc1ccc2c(c1)CCO[C@@H]2[C@H]1CCN1` [Compound I-91, (R)-2-((S)-6-fluoroisochroman-1-yl)azetidine], the “AD: ADHD” value was “+ (LOQ ≤ + <5%)”, the “AG: analgesic” value was “++ (5% ≤ ++ <25%)” and the “AX: anxiolytic” value was “++ (5% ≤ ++ <25%)”. For the same compound, the “CE: cognitive enhancer” value was “++ (5% ≤ ++ <25%)”, the “DP: anti-depressant” value was “++ (5% ≤ ++ <25%)” and the “HA: hallucinogen” value was “+ (LOQ ≤ + <5%)”. The “MS: mood stabilizer” value was “+ (LOQ ≤ + <5%)”, the “PS: anti-psychotic” value was “+++ (25% ≤ +++ <50%)” and the “SD: sedative hypnotic” value was “++ (5% ≤ ++ <25%)”. The “UN: uncharacterized CNS activity” value was “++ (5% ≤ ++ <25%)” and the “XG: anxiogenic” value was “+ (LOQ ≤ + <5%)”.
In the case of `N#Cc1ccc2c(c1)[C@@H]([C@H]1CCCN1)OCC2` [Compound I-42, (S)-1-((R)-pyrrolidin-2-yl)isochroman-7-carbonitrile], the “AD: ADHD” value is reported as “+ (LOQ ≤ + <5%)”, the “AG: analgesic” value is reported as “++ (5% ≤ ++ <25%)” and the “AX: anxiolytic” value is reported as “++ (5% ≤ ++ <25%)”. The “CE: cognitive enhancer” value was “++ (5% ≤ ++ <25%)”, the “DP: anti-depressant” value was “+++ (25% ≤ +++ <50%)” and the “HA: hallucinogen” value was “+ (LOQ ≤ + <5%)”. For the same compound, the “MS: mood stabilizer” value was “+ (LOQ ≤ + <5%)”, the “PS: anti-psychotic” value was “++ (5% ≤ ++ <25%)” and the “SD: sedative hypnotic” value was “++ (5% ≤ ++ <25%)”. The “UN: uncharacterized CNS activity” value was “+ (LOQ ≤ + <5%)” and the “XG: anxiogenic” value was “+ (LOQ ≤ + <5%)”.
In the case of `N#Cc1ccc2c(c1)CCO[C@H]2[C@@H]1CCCN1` [Compound I-44, (R)-1-((S)-pyrrolidin-2-yl)isochroman-6-carbonitrile], the “AD: ADHD” value is reported as “+ (LOQ ≤ + <5%)”, the “AG: analgesic” value is reported as “++ (5% ≤ ++ <25%)” and the “AX: anxiolytic” value is reported as “+++ (25% ≤ +++ <50%)”. The “CE: cognitive enhancer” value was “++ (5% ≤ ++ <25%)”, the “DP: anti-depressant” value was “++ (5% ≤ ++ <25%)” and the “HA: hallucinogen” value was “+ (LOQ ≤ + <5%)”. The “MS: mood stabilizer” value was “++ (5% ≤ ++ <25%)”, the “PS: anti-psychotic” value was “+++ (25% ≤ +++ <50%)” and the “SD: sedative hypnotic” value was “+ (LOQ ≤ + <5%)”. The “UN: uncharacterized CNS activity” value was “+ (LOQ ≤ + <5%)” and the “XG: anxiogenic” value was “+ (LOQ ≤ + <5%)”.
In the case of `Fc1ccc2c(c1)[C@@H]([C@@H]1CCCN1)OCC2` [Compound I-6, (2S)-2-((S)-7-fluoroisochroman-1-yl)pyrrolidine], the “AD: ADHD” value is reported as “+ (LOQ ≤ + <5%)”, the “AG: analgesic” value is reported as “+ (LOQ ≤ + <5%)” and the “AX: anxiolytic” value is reported as “++ (5% ≤ ++ <25%)”. For the same compound, the “CE: cognitive enhancer” value was “+ (LOQ ≤ + <5%)”, the “DP: anti-depressant” value was “++ (5% ≤ ++ <25%)” and the “HA: hallucinogen” value was “+ (LOQ ≤ + <5%)”. For the same compound, the “MS: mood stabilizer” value was “+ (LOQ ≤ + <5%)”, the “PS: anti-psychotic” value was “++ (5% ≤ ++ <25%)” and the “SD: sedative hypnotic” value was “+ (LOQ ≤ + <5%)”. The “UN: uncharacterized CNS activity” value was “+++ (25% ≤ +++ <50%)” and the “XG: anxiogenic” value was “+ (LOQ ≤ + <5%)”.
